System: MV-4-11 cells
Experiment: Gene expression microarray analysis (Affymetrix PrimeView) and GSEA
Assay type: cell-based, human
Design: RFU PODN (11730768_x_at) / Fold change /veh PODN (11730768_x_at) / RFU LINC00158 (11744669_a_at) / Fold change /veh LINC00158 (11744669_a_at) / RFU DUSP10 (11751237_a_at) / Fold change /veh DUSP10 (11751237_a_at) / RFU ID3 (11757404_x_at) / Fold change /veh ID3 (11757404_x_at) / RFU PLEKHG5 (11737974_s_at) / Fold change /veh PLEKHG5 (11737974_s_at) / RFU LRRC4B (11730491_at) / Fold change /veh LRRC4B (11730491_at) / RFU GIMAP4 (11747438_a_at) / Fold change /veh GIMAP4 (11747438_a_at) / RFU KRT8 (11758183_x_at) / Fold change /veh KRT8 (11758183_x_at) / RFU CNN1 (11734310_a_at) / Fold change /veh CNN1 (11734310_a_at) / RFU VPS37D (11726825_at) / Fold change /veh VPS37D (11726825_at) / RFU C10orf10 (11716522_x_at) / Fold change /veh C10orf10 (11716522_x_at) / RFU KIR2DL2 /// KIR2DL4 /// KIR2DL5A /// KIR2DL5B /// KIR2DS1 /// KIR2DS2 /// KIR2DS3 /// KIR2DS4 /// KIR3DL3 /// KIR3DL3 /// KIR3DS1 (11738374_at) / Fold change /veh KIR2DL2 /// KIR2DL4 /// KIR2DL5A /// KIR2DL5B /// KIR2DS1 /// KIR2DS2 /// KIR2DS3 /// KIR2DS4 /// KIR3DL3 /// KIR3DL3 /// KIR3DS1 (11738374_at) / RFU C1QL1 (11718748_at) / Fold change /veh C1QL1 (11718748_at) / RFU TMPRSS4 (11747572_a_at) / Fold change /veh TMPRSS4 (11747572_a_at) / RFU HAMP (11756126_x_at) / Fold change /veh HAMP (11756126_x_at) / RFU RNFT2 (11725882_a_at) / Fold change /veh RNFT2 (11725882_a_at) / RFU NR4A2 (11747474_a_at) / Fold change /veh NR4A2 (11747474_a_at) / RFU ABCC12 (11746883_a_at) / Fold change /veh ABCC12 (11746883_a_at) / RFU TMEM136 (11760407_x_at) / Fold change /veh TMEM136 (11760407_x_at) / RFU CLDN22 /// WWC2 (11732394_at) / Fold change /veh CLDN22 /// WWC2 (11732394_at) / RFU HLA-DPB1 (11760878_x_at) / Fold change /veh HLA-DPB1 (11760878_x_at) / RFU SPINT1 (11716480_a_at) / Fold change /veh SPINT1 (11716480_a_at) / RFU GAP43 (11754022_s_at) / Fold change /veh GAP43 (11754022_s_at) / RFU A4GNT (11735810_at) / Fold change /veh A4GNT (11735810_at) / RFU PRB3 (11715151_x_at) / Fold change /veh PRB3 (11715151_x_at) / RFU TUBB4B (11761932_at) / Fold change /veh TUBB4B (11761932_at) / RFU CAPN14 (11732068_a_at) / Fold change /veh CAPN14 (11732068_a_at) / RFU TMCC2 (11721928_a_at) / Fold change /veh TMCC2 (11721928_a_at) / RFU IRGQ (11745062_a_at) / Fold change /veh IRGQ (11745062_a_at) / RFU FAM174B (11720279_a_at) / Fold change /veh FAM174B (11720279_a_at) / RFU TMPRSS4 (11748680_a_at) / Fold change /veh TMPRSS4 (11748680_a_at) / RFU FAM212B (11763350_a_at) / Fold change /veh FAM212B (11763350_a_at) / RFU PLEKHG5 (11743358_a_at) / Fold change /veh PLEKHG5 (11743358_a_at) / RFU ZSCAN30 (11745921_a_at) / Fold change /veh ZSCAN30 (11745921_a_at) / RFU CMKLR1 (11741424_a_at) / Fold change /veh CMKLR1 (11741424_a_at) / RFU LOC101060620 /// MAPK8IP1 (11723275_at) / Fold change /veh LOC101060620 /// MAPK8IP1 (11723275_at) / RFU SPTSSB (11747773_x_at) / Fold change /veh SPTSSB (11747773_x_at) / RFU PRSS12 (11739890_at) / Fold change /veh PRSS12 (11739890_at) / RFU BIN1 (11741810_x_at) / Fold change /veh BIN1 (11741810_x_at) / RFU WNT11 (11732464_a_at) / Fold change /veh WNT11 (11732464_a_at) / RFU C10orf10 (11716521_a_at) / Fold change /veh C10orf10 (11716521_a_at) / RFU C5orf56 (11738089_at) / Fold change /veh C5orf56 (11738089_at) / RFU CYB561 (11721691_x_at) / Fold change /veh CYB561 (11721691_x_at) / RFU ANKRD19P (11752326_a_at) / Fold change /veh ANKRD19P (11752326_a_at) / RFU OR2T12 /// OR2T33 /// OR2T8 (11738714_s_at) / Fold change /veh OR2T12 /// OR2T33 /// OR2T8 (11738714_s_at) / RFU VCAN (11748164_a_at) / Fold change /veh VCAN (11748164_a_at) / RFU JSRP1 (11732532_at) / Fold change /veh JSRP1 (11732532_at) / RFU KRTAP10-11 (11738290_x_at) / Fold change /veh KRTAP10-11 (11738290_x_at) / RFU MYO3A (11730013_a_at) / Fold change /veh MYO3A (11730013_a_at) / RFU EBF3 (11725865_a_at) / Fold change /veh EBF3 (11725865_a_at) / RFU CAMK2N1 (11719241_x_at) / Fold change /veh CAMK2N1 (11719241_x_at) / RFU C5orf56 (11738088_a_at) / Fold change /veh C5orf56 (11738088_a_at) / RFU OLFML3 (11715873_a_at) / Fold change /veh OLFML3 (11715873_a_at) / RFU LOC100653217 /// NTM (11731650_a_at) / Fold change /veh LOC100653217 /// NTM (11731650_a_at) / RFU MAPK11 (11762145_a_at) / Fold change /veh MAPK11 (11762145_a_at) / RFU FIZ1 (11724087_x_at) / Fold change /veh FIZ1 (11724087_x_at) / RFU OASL (11726364_x_at) / Fold change /veh OASL (11726364_x_at) / RFU SOX15 (11748057_x_at) / Fold change /veh SOX15 (11748057_x_at) / RFU CD79A (11719716_a_at) / Fold change /veh CD79A (11719716_a_at) / RFU HIST1H1D (11736915_at) / Fold change /veh HIST1H1D (11736915_at) / RFU CASKIN2 (11723855_a_at) / Fold change /veh CASKIN2 (11723855_a_at) / RFU LOC730098 (11760151_x_at) / Fold change /veh LOC730098 (11760151_x_at) / RFU OR4N2 (11742367_at) / Fold change /veh OR4N2 (11742367_at) / RFU PRRT2 (11749266_a_at) / Fold change /veh PRRT2 (11749266_a_at) / RFU SNX32 (11753110_a_at) / Fold change /veh SNX32 (11753110_a_at) / RFU CDHR5 (11726645_a_at) / Fold change /veh CDHR5 (11726645_a_at) / RFU RCAN1 (11760418_a_at) / Fold change /veh RCAN1 (11760418_a_at) / RFU FAM167A (11723789_a_at) / Fold change /veh FAM167A (11723789_a_at) / RFU FAM26E (11764081_at) / Fold change /veh FAM26E (11764081_at) / RFU ISYNA1 (11749810_s_at) / Fold change /veh ISYNA1 (11749810_s_at) / RFU ACY1 (11761880_at) / Fold change /veh ACY1 (11761880_at) / RFU 11764098_at / Fold change /veh 11764098_at / RFU SAMD14 (11745864_x_at) / Fold change /veh SAMD14 (11745864_x_at) / RFU NPB (11741838_a_at) / Fold change /veh NPB (11741838_a_at) / RFU TMPRSS6 (11731388_a_at) / Fold change /veh TMPRSS6 (11731388_a_at) / RFU KRTAP10-2 (11738614_at) / Fold change /veh KRTAP10-2 (11738614_at) / RFU ARHGAP8 /// PRR5-ARHGAP8 (11727945_x_at) / Fold change /veh ARHGAP8 /// PRR5-ARHGAP8 (11727945_x_at) / RFU KRTAP5-7 /// NADSYN1 (11734609_at) / Fold change /veh KRTAP5-7 /// NADSYN1 (11734609_at) / RFU RASL12 (11751679_a_at) / Fold change /veh RASL12 (11751679_a_at) / RFU CDKN2B (11736163_a_at) / Fold change /veh CDKN2B (11736163_a_at) / RFU PRF1 (11729649_at) / Fold change /veh PRF1 (11729649_at) / RFU, ZNF638 /// ZNF638-IT1 / Fold change vs veh, ZNF638 /// ZNF638-IT1 / RFU, PANK3 / Fold change vs veh, PANK3 / RFU, SH3YL1 / Fold change vs veh, SH3YL1 / RFU, ZEB2 / Fold change vs veh, ZEB2 / RFU, NRIP1 / Fold change vs veh, NRIP1 / RFU, PTTG1IP / Fold change vs veh, PTTG1IP / RFU, CAPN2 / Fold change vs veh, CAPN2 / RFU, MED14 / Fold change vs veh, MED14 / RFU, SNORA58 / Fold change vs veh, SNORA58 / RFU, C1orf63 / Fold change vs veh, C1orf63 / RFU, LRRFIP1 / Fold change vs veh, LRRFIP1 / RFU, NDUFAF7 / Fold change vs veh, NDUFAF7 / RFU, SLC12A2 / Fold change vs veh, SLC12A2 / RFU, IBTK / Fold change vs veh, IBTK / RFU, ESF1 / Fold change vs veh, ESF1 / Fold change vs veh, TMEM50B / RFU, TAOK1 / Fold change vs veh, TAOK1 / RFU, ACBD3 / Fold change vs veh, ACBD3 / RFU, TMA16 / Fold change vs veh, TMA16 / RFU, RWDD3 / Fold change vs veh, RWDD3 / RFU, BCAT1 / Fold change vs veh, BCAT1 / RFU, EDEM3 / Fold change vs veh, EDEM3 / RFU, TMEM33 / Fold change vs veh, TMEM33 / RFU, WDR75 / Fold change vs veh, WDR75 / RFU, AHCTF1 / Fold change vs veh, AHCTF1 / RFU, TFRC / Fold change vs veh, TFRC / RFU, ZDHHC17 / Fold change vs veh, ZDHHC17 / RFU, NOM1 / Fold change vs veh, NOM1 / RFU, ARL8B / Fold change vs veh, ARL8B / RFU, ZBTB11 / Fold change vs veh, ZBTB11 / RFU, TAMM41 / Fold change vs veh, TAMM41 / RFU, KIAA1704 /// LOC100996395 / Fold change vs veh, KIAA1704 /// LOC100996395 / RFU, ING1 / Fold change vs veh, ING1 / RFU, TRMT61B / Fold change vs veh, TRMT61B / RFU, FUBP3 / Fold change vs veh, FUBP3 / RFU, TP53 / Fold change vs veh, TP53 / RFU, TNKS2 / Fold change vs veh, TNKS2 / RFU, ZFP14 / Fold change vs veh, ZFP14 / RFU, ACTR2 / Fold change vs veh, ACTR2 / RFU, PPP3R1 / Fold change vs veh, PPP3R1 / RFU, PIK3R1 / Fold change vs veh, PIK3R1 / RFU, HNRNPA1 / Fold change vs veh, HNRNPA1 / RFU, RNF170 / Fold change vs veh, RNF170 / RFU, ZNF28 / Fold change vs veh, ZNF28 / RFU, RNGTT / Fold change vs veh, RNGTT / RFU, OGT / Fold change vs veh, OGT / RFU, BRD1 / Fold change vs veh, BRD1 / RFU, MARS / Fold change vs veh, MARS / RFU, ZNF655 / Fold change vs veh, ZNF655 / RFU, FAHD1 / Fold change vs veh, FAHD1 / RFU, BDP1 / Fold change vs veh, BDP1 / RFU, LRRCC1 / Fold change vs veh, LRRCC1 / RFU, ARID1A / Fold change vs veh, ARID1A / RFU, ZNF146 / Fold change vs veh, ZNF146 / RFU, ZNF330 / Fold change vs veh, ZNF330 / RFU, GPN3 / Fold change vs veh, GPN3 / RFU, C9orf123 / Fold change vs veh, C9orf123 / RFU, N4BP2L2 / Fold change vs veh, N4BP2L2 / RFU, ARFIP1 / Fold change vs veh, ARFIP1 / RFU, FAM179B / Fold change vs veh, FAM179B / RFU, BCL10 / Fold change vs veh, BCL10 / RFU, UHRF1BP1L / Fold change vs veh, UHRF1BP1L / RFU, BET1 / Fold change vs veh, BET1 / RFU, CNOT2 / Fold change vs veh, CNOT2 / RFU, ZNF268 / Fold change vs veh, ZNF268 / Fold change vs veh, ZNF507 / RFU, DGCR2 / Fold change vs veh, DGCR2 / RFU, WDSUB1 / Fold change vs veh, WDSUB1 / Fold change vs veh, HSP90B1 /// MIR3652 / RFU, ADSS / Fold change vs veh, ADSS / RFU, GK / Fold change vs veh, GK / RFU, ZNF148 / Fold change vs veh, ZNF148 / RFU, TAF9 / Fold change vs veh, TAF9 / RFU, SLC1A5 / Fold change vs veh, SLC1A5 / RFU, SLMO2 / Fold change vs veh, SLMO2 / RFU, ABCC4 / Fold change vs veh, ABCC4 / RFU, LOC101060439 /// RAP1B / Fold change vs veh, LOC101060439 /// RAP1B / RFU, RFX7 / Fold change vs veh, RFX7 / RFU, GTPBP10 / Fold change vs veh, GTPBP10 / RFU, CNEP1R1 / Fold change vs veh, CNEP1R1 / RFU, BIVM-ERCC5 /// ERCC5 / Fold change vs veh, BIVM-ERCC5 /// ERCC5 / RFU, ILF3 / Fold change vs veh, ILF3 / RFU 11762660_at / Fold change /veh 11762660_at / RFU VCAN (11757783_s_at) / Fold change /veh VCAN (11757783_s_at) / RFU DDX43 (11728927_at) / Fold change /veh DDX43 (11728927_at) / RFU KRT8 (11758188_x_at) / Fold change /veh KRT8 (11758188_x_at) / RFU NKD1 (11759106_at) / Fold change /veh NKD1 (11759106_at) / RFU SRD5A1 (11742802_a_at) / Fold change /veh SRD5A1 (11742802_a_at) / RFU TPSAB1 /// TPSB2 (11721975_s_at) / Fold change /veh TPSAB1 /// TPSB2 (11721975_s_at) / RFU GSTM3 (11746129_a_at) / Fold change /veh GSTM3 (11746129_a_at) / RFU IL23R (11737362_x_at) / Fold change /veh IL23R (11737362_x_at) / RFU TMEM51 (11727254_a_at) / Fold change /veh TMEM51 (11727254_a_at) / RFU PIWIL2 (11732686_x_at) / Fold change /veh PIWIL2 (11732686_x_at) / RFU ORM1 (11744905_x_at) / Fold change /veh ORM1 (11744905_x_at) / RFU CCDC152 (11743942_at) / Fold change /veh CCDC152 (11743942_at) / RFU ECM1 (11717891_a_at) / Fold change /veh ECM1 (11717891_a_at) / RFU IL23R (11748794_a_at) / Fold change /veh IL23R (11748794_a_at) / RFU TNFAIP8L3 (11732012_x_at) / Fold change /veh TNFAIP8L3 (11732012_x_at) / RFU MBOAT4 (11741988_at) / Fold change /veh MBOAT4 (11741988_at) / RFU 11764193_at / Fold change /veh 11764193_at / RFU TMEM53 (11763286_at) / Fold change /veh TMEM53 (11763286_at) / RFU MAGEB2 (11727129_at) / Fold change /veh MAGEB2 (11727129_at) / RFU TMEM200A (11744735_a_at) / Fold change /veh TMEM200A (11744735_a_at) / RFU CCDC152 (11751479_a_at) / Fold change /veh CCDC152 (11751479_a_at) / RFU FAM211A (11726209_a_at) / Fold change /veh FAM211A (11726209_a_at) / RFU RGS16 (11746705_a_at) / Fold change /veh RGS16 (11746705_a_at) / RFU VCAN (11755009_s_at) / Fold change /veh VCAN (11755009_s_at) / RFU RHOB (11743442_s_at) / Fold change /veh RHOB (11743442_s_at) / RFU RGS16 (11720943_a_at) / Fold change /veh RGS16 (11720943_a_at) / RFU RGS16 (11720944_at) / Fold change /veh RGS16 (11720944_at) / RFU, VPS4B / Fold change vs veh, VPS4B / RFU, CREB1 / Fold change vs veh, CREB1 / RFU, DNAJC13 / Fold change vs veh, DNAJC13 / RFU, GNAQ / Fold change vs veh, GNAQ / RFU, CDK5R1 / Fold change vs veh, CDK5R1 / RFU, ZRANB3 / Fold change vs veh, ZRANB3 / RFU, CUL4A / Fold change vs veh, CUL4A / RFU, CCNY / Fold change vs veh, CCNY / RFU, UFL1 / Fold change vs veh, UFL1 / RFU, COG3 / Fold change vs veh, COG3 / RFU, DIAPH2 / Fold change vs veh, DIAPH2 / RFU, SKA2 / Fold change vs veh, SKA2 / RFU, AFF3 / Fold change vs veh, AFF3 / RFU, LMF1 / Fold change vs veh, LMF1 / RFU, IPO11 / Fold change vs veh, IPO11 / RFU, DFFB / Fold change vs veh, DFFB / RFU, FOXP1 / Fold change vs veh, FOXP1 / RFU, CARD8 / Fold change vs veh, CARD8 / RFU, STRN3 / Fold change vs veh, STRN3 / RFU, ADK / Fold change vs veh, ADK / RFU, RASSF2 / Fold change vs veh, RASSF2 / RFU, WIPF1 / Fold change vs veh, WIPF1 / RFU, LARP1B / Fold change vs veh, LARP1B / RFU, RASA1 / Fold change vs veh, RASA1 / RFU, RB1 / Fold change vs veh, RB1 / RFU, PPFIA1 / Fold change vs veh, PPFIA1 / RFU, MAT2A / Fold change vs veh, MAT2A / RFU, CCT5 / Fold change vs veh, CCT5 / RFU, WDR92 / Fold change vs veh, WDR92 / RFU, CUX1 / Fold change vs veh, CUX1 / RFU, TTC7A / Fold change vs veh, TTC7A / RFU, TMEM135 / Fold change vs veh, TMEM135 / RFU, DEPTOR / Fold change vs veh, DEPTOR / RFU, CPM / Fold change vs veh, CPM / RFU, DNAJB6 / Fold change vs veh, DNAJB6 / RFU, CACNA2D3 / Fold change vs veh, CACNA2D3 / RFU, DTX4 / Fold change vs veh, DTX4 / RFU, TFCP2 / Fold change vs veh, TFCP2 / RFU, GMCL1 /// GMCL1P1 / Fold change vs veh, GMCL1 /// GMCL1P1 / RFU, AEBP2 / Fold change vs veh, AEBP2 / RFU, SNHG1 /// SNORD22 /// SNORD25 /// SNORD26 /// SNORD27 /// SNORD28 /// SNORD29 /// SNORD31 / Fold change vs veh, SNHG1 /// SNORD22 /// SNORD25 /// SNORD26 /// SNORD27 /// SNORD28 /// SNORD29 /// SNORD31 / Fold change (Aza/veh), C12orf56 (ProbeSet 11735607_a_at) / Fold change (ACY-1035/veh), C12orf56 (ProbeSet 11735607_a_at) / Fold change (Aza/veh), FGFR1OP (ProbeSet 11751329_s_at) / Fold change (ACY-1035/veh), FGFR1OP (ProbeSet 11751329_s_at) / Fold change (Aza/veh), VPS36 (ProbeSet 11739960_a_at) / Fold change (ACY-1035/veh), VPS36 (ProbeSet 11739960_a_at) / RFU SYPL1 (11715823_x_at) / Fold change /veh SYPL1 (11715823_x_at) / RFU IGFBP7 (11715501_s_at) / Fold change /veh IGFBP7 (11715501_s_at) / RFU REEP3 (11722064_at) / Fold change /veh REEP3 (11722064_at) / RFU IGLL1 (11728026_x_at) / Fold change /veh IGLL1 (11728026_x_at): dose or concentration left out as unconfirmed
Conditions: MV-4-11 cells, 48 hours

Nc1ncn([C@@H]2O[C@H](CO)[C@@H](O)[C@H]2O)c(=O)n1 [azacitidine]
RFU RHOB (11743442_s_at): 110.59 RFU

— PMC5218480 (PLoS ONE, 2017)
